Laboratory results: PubChem BioAssay AID330 (DTP/NCI, 2004)
Toxic doses and inconclusive results are not listed. Rule for the calls: active = survival T/C of 150% or more; inactive = T/C below 125% in these data.

System: P388 leukemia ip, CD2F1 mice, survival T/C
Experiment: NCI In Vivo Anticancer Drug Screen. Data for tumor model P388 Leukemia (intraperitoneal) in CD2F1 (CDF1) mice
Details: endpoint: median survival time, higher = longer survival
Method in brief: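 Mice carrying the transplanted tumor received test compound or vehicle. Survival was recorded in each group, and the value is the treated-group measurement divided by that of the vehicle-treated control group.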

[1] = dose: 60.0 mg/kg/injection, schedule: Q01DX005 (ip), vehicle: Klucel (hydroxypropylcellulose) (HPC)
[2] = dose: 120.0 mg/kg/injection, schedule: Q01DX005 (ip), vehicle: Klucel (hydroxypropylcellulose) (HPC)
[3] = dose: 240.0 mg/kg/injection, schedule: Q01DX005 (ip), vehicle: Klucel (hydroxypropylcellulose) (HPC)
[4] = dose: 50.0 mg/kg/injection, schedule: Q01DX005 (ip), vehicle: Klucel (hydroxypropylcellulose) (HPC)
[5] = dose: 100.0 mg/kg/injection, schedule: Q01DX005 (ip), vehicle: Klucel (hydroxypropylcellulose) (HPC)
[6] = dose: 200.0 mg/kg/injection, schedule: Q01DX005 (ip), vehicle: Klucel (hydroxypropylcellulose) (HPC)
[7] = dose: 50.0 mg/kg/injection, schedule: Q01DX005 (ip), vehicle: saline with Tween-80
[8] = dose: 100.0 mg/kg/injection, schedule: Q01DX005 (ip), vehicle: saline with Tween-80
[9] = dose: 12.5 mg/kg/injection, schedule: Q01DX009 (ip), vehicle: saline with Tween-80
[10] = dose: 200.0 mg/kg/injection, schedule: Q01DX005 (ip), vehicle: saline with Tween-80

Measured: T/C

CC(=O)OC1CC2CCC3C(CCC4(C)C3CC([N+]3(C)CCCCC3)C4OC(C)=O)C2(C)CC1[N+]1(C)CCCCC1 (configuration not stated)
inactive: dose: 12.5 micrograms/kg/injection, schedule: Q01DX009 (ip), vehicle: saline 103 % of control | dose: 25.0 micrograms/kg/injection, schedule: Q01DX009 (ip), vehicle: saline 100 % of control | dose: 50.0 micrograms/kg/injection, schedule: Q01DX009 (ip), vehicle: saline 103 % of control

Nc1nc(-c2cccc([N+](=O)[O-])c2)cc(-c2cc(-c3cccc([N+](=O)[O-])c3)nc(N)n2)n1
inactive: [1] 94 % of control | [2] 90 % of control | [3] 96 % of control

CCCCN(CCO)CC(O)Cn1cnc2c(N)ncnc21 (configuration not stated)
inactive: [1] 94 % of control | [2] 87 % of control | [3] 87 % of control

COC(=O)C1=C(\N2CCCC2)CC(C)(C)CC(=O)/C=C\1C(=O)OC
inactive: [4] 92 % of control | [5] 93 % of control | [6] 104 % of control

COc1ccc(CCNC2=CC(=O)CC2)cc1OC
inactive: dose: 25.0 mg/kg/injection, schedule: Q01DX005 (ip), vehicle: saline with Tween-80 92 % of control | [7] 89 % of control | [8] 92 % of control

O=S(=O)(/N=C/c1ccccc1)c1ccc(Cl)cc1
inactive: [9] 101 % of control | dose: 25.0 mg/kg/injection, schedule: Q01DX009 (ip), vehicle: saline with Tween-80 101 % of control | dose: 50.0 mg/kg/injection, schedule: Q01DX009 (ip), vehicle: saline with Tween-80 95 % of control | dose: 100.0 mg/kg/injection, schedule: Q01DX009 (ip), vehicle: saline with Tween-80 96 % of control

BrCC(Br)=C(Br)Br
inactive: dose: 3.12 mg/kg/injection, schedule: Q01DX009 (ip), vehicle: saline with Tween-80 104 % of control | dose: 6.25 mg/kg/injection, schedule: Q01DX009 (ip), vehicle: saline with Tween-80 106 % of control | [9] 98 % of control

CC1(C)OCC(C2OC3OC(C)(C)OC3C2N=O)O1 (configuration not stated)
inactive: dose: 94.5 mg/kg/injection, schedule: Q04DX002 (ip), vehicle: Klucel (hydroxypropylcellulose) (HPC) 103 % of control | dose: 189.0 mg/kg/injection, schedule: Q04DX002 (ip), vehicle: Klucel (hydroxypropylcellulose) (HPC) 96 % of control | dose: 378.0 mg/kg/injection, schedule: Q04DX002 (ip), vehicle: Klucel (hydroxypropylcellulose) (HPC) 90 % of control

CC(=O)OC1CC(C)OC(OC2CCC3(C=O)C4C(O)C(=O)[C@]5(C)C(c6ccc(=O)oc6)CC[C@]5(O)C4CC[C@]3(O)C2)C1OC(C)=O (some centres not stated)
inactive: dose: 0.18 mg/kg/injection, schedule: Q01DX009 (ip), vehicle: distilled water + Tween-80 + alcohol 90 % of control | dose: 0.35 mg/kg/injection, schedule: Q01DX009 (ip), vehicle: distilled water + Tween-80 + alcohol 107 % of control | dose: 0.71 mg/kg/injection, schedule: Q01DX009 (ip), vehicle: distilled water + Tween-80 + alcohol 100 % of control | dose: 1.42 mg/kg/injection, schedule: Q01DX009 (ip), vehicle: distilled water + Tween-80 + alcohol 109 % of control | dose: 2.84 mg/kg/injection, schedule: Q01DX009 (ip), vehicle: distilled water + Tween-80 + alcohol 100 % of control

N/C(=N\[N+](=O)[O-])N1CCCCCC1
inactive: dose: 12.5 mg/kg/injection, schedule: Q01DX005 (ip), vehicle: Klucel (hydroxypropylcellulose) (HPC) 106 % of control | dose: 25.0 mg/kg/injection, schedule: Q01DX005 (ip), vehicle: Klucel (hydroxypropylcellulose) (HPC) 100 % of control | [4] 107 % of control

COc1onc(C)c1CC(=O)O
inactive: dose: 18.75 mg/kg/injection, schedule: Q01DX005 (ip), vehicle: saline with Tween-80 97 % of control | dose: 37.5 mg/kg/injection, schedule: Q01DX005 (ip), vehicle: saline with Tween-80 101 % of control | dose: 75.0 mg/kg/injection, schedule: Q01DX005 (ip), vehicle: saline with Tween-80 95 % of control | dose: 150.0 mg/kg/injection, schedule: Q01DX005 (ip), vehicle: saline with Tween-80 99 % of control

NC1=C(O)C(=O)C(c2ccc3c(c2)OCO3)O1 (configuration not stated)
inactive: [1] 92 % of control | [2] 95 % of control | [3] 91 % of control

C=C1[C@@H](O)C[C@@H]2C[C@@]3(C)[C@H](C(C)(C)C[C@@H]3O)C12O (some centres not stated)
inactive: dose: 3.75 mg/kg/injection, schedule: Q01DX005 (ip), vehicle: saline 98 % of control | dose: 7.5 mg/kg/injection, schedule: Q01DX005 (ip), vehicle: saline 100 % of control | dose: 15.0 mg/kg/injection, schedule: Q01DX005 (ip), vehicle: saline 98 % of control

NC(=O)c1n[nH]c(=S)[nH]c1=O
inactive: [4] 102 % of control | [5] 91 % of control | [6] 96 % of control

COC(=O)C(O)C1OC(COCc2ccccc2)C(OCc2ccccc2)C1OCc1ccccc1 (configuration not stated)
inactive: dose: 12.5 mg/kg/injection, schedule: Q01DX009 (ip), vehicle: distilled water + alcohol 100 % of control | dose: 25.0 mg/kg/injection, schedule: Q01DX009 (ip), vehicle: distilled water + alcohol 100 % of control | dose: 50.0 mg/kg/injection, schedule: Q01DX009 (ip), vehicle: distilled water + alcohol 103 % of control | dose: 100.0 mg/kg/injection, schedule: Q01DX009 (ip), vehicle: distilled water + alcohol 100 % of control | dose: 200.0 mg/kg/injection, schedule: Q01DX009 (ip), vehicle: distilled water + alcohol 112 % of control

O=C(/C=C/c1cccc(Cl)c1)c1ccccc1
inactive: dose: 50.0 mg/kg/injection, schedule: Q01DX009 (ip), vehicle: Klucel (hydroxypropylcellulose) (HPC) 102 % of control | dose: 100.0 mg/kg/injection, schedule: Q01DX009 (ip), vehicle: Klucel (hydroxypropylcellulose) (HPC) 104 % of control | dose: 150.0 mg/kg/injection, schedule: Q01DX009 (ip), vehicle: Klucel (hydroxypropylcellulose) (HPC) 110 % of control | dose: 200.0 mg/kg/injection, schedule: Q01DX009 (ip), vehicle: Klucel (hydroxypropylcellulose) (HPC) 122 % of control

O=C1CC2(CC=CCC23OCCO3)CC(CI)O1 (configuration not stated)
inactive: dose: 2.5 mg/kg/injection, schedule: Q01DX005 (ip), vehicle: acid diluted with saline 106 % of control | dose: 5.0 mg/kg/injection, schedule: Q01DX005 (ip), vehicle: Klucel (hydroxypropylcellulose) (HPC) 100 % of control | dose: 5.0 mg/kg/injection, schedule: Q01DX005 (ip), vehicle: acid diluted with saline 111 % of control | dose: 10.0 mg/kg/injection, schedule: Q01DX005 (ip), vehicle: Klucel (hydroxypropylcellulose) (HPC) 100 % of control | dose: 10.0 mg/kg/injection, schedule: Q01DX005 (ip), vehicle: acid diluted with saline 93 % of control | dose: 20.0 mg/kg/injection, schedule: Q01DX005 (ip), vehicle: Klucel (hydroxypropylcellulose) (HPC) 98 % of control | dose: 20.0 mg/kg/injection, schedule: Q01DX005 (ip), vehicle: acid diluted with saline 100 % of control | dose: 40.0 mg/kg/injection, schedule: Q01DX005 (ip), vehicle: Klucel (hydroxypropylcellulose) (HPC) 103 % of control

NC(CC1=CS(=O)(=O)c2ccc(Cl)cc21)C(=O)O (configuration not stated)
inactive: dose: 25.0 mg/kg/injection, schedule: Q01DX001 (ip), vehicle: Klucel (hydroxypropylcellulose) (HPC) 99 % of control | dose: 50.0 mg/kg/injection, schedule: Q01DX001 (ip), vehicle: Klucel (hydroxypropylcellulose) (HPC) 96 % of control | dose: 100.0 mg/kg/injection, schedule: Q01DX001 (ip), vehicle: Klucel (hydroxypropylcellulose) (HPC) 101 % of control

CC1=C(c2ccco2)C2(c3ccco3)C(C(=O)c3ccccc3)C2(C)C1=O (configuration not stated)
inactive: [7] 90 % of control | [8] 90 % of control | [10] 95 % of control

N#CCCSC(=S)N1CCCC1=O
inactive: [7] 103 % of control | [8] 104 % of control | [10] 114 % of control
